The values that follow come from patent US20260224486A1, “DIANHYDROHEXITOL BASED IONIZABLE LIPIDS FOR NUCLEIC ACID DELIVERY” (SANOFI PASTEUR INC., priority 2023, published 2026).

Structures are written as SMILES.

The test system of one experiment is BALB/cJ mice. The experiment in a line: Delivery of hEPO mRNA by intramuscular administration of LNPs; serum hEPO by ELISA. Type of experiment: in vivo, Mouse. The following applies: Table 2, isosorbide-derived lipids; mouse serum 6 hours post single IM injection of 0.1 μg hEPO mRNA LNP. As for the experimental part: In summary, lipid screening studies were conducted with female BALB/cJ mice 6-8 weeks of age. Mice were dosed with 0.1 μg in 30 μL of LNPs by a single intramuscular (IM) injection into the gastrocnemius leg muscle. Blood samples were taken 6 and 24 hours post injection and hEPO levels were measured in the blood serum of the mice using an ELISA assay according to the manufacture's protocol.
Treatment Regimen: On Day 1, animals from Groups 1-33 were dosed via intramuscular injection while under light isoflurane anesthesia according to the study design table above. Animals in Groups 1-33 were injected with EPO mRNA LNPs in the right leg only. Groups 1 and 17 animals received MC3 control.
Interim Sample Collections: Interim whole blood (^~50 μL) was collected by tail snip or saphenous vein at 6 and 24 hours post dose administration (±5%). Blood samples were collected into serum separator tubes, allowed to clot at room temperature for at least 10 minutes, centrifuged at ambient temperature at minimum 1000 g for 10 minutes and the serum was extracted. All serum samples were stored at nominally −70° C. until analysis hEPO by the Testing Facility. The results of the EPO analysis were included in the Data Submission.
Terminal Blood Collections: Whole blood was collected via cardiac puncture into serum separator tube, allowed to clot at room temperature for at least 10 minutes, centrifuged at ambient temperature at minimum 1000 g for 10 minutes and the serum was extracted. Serum samples were stored at nominally −70° C. until analyzed for hEPO by the Test Facility.
ELISA Assay: Human erythropoietin (hEPO) levels in sera samples were determined by ELISA kit (R&D systems, Cat #DEP-00) according to the manufactory instruction and the results were included in the Data Submission. The “shaker” protocol was used. The serum samples were diluted between 1:40 and 1:100.
A general note: An ELISA detects its analyte on a solid surface through an enzyme-linked reagent.
As for `CCCCC/C=C\C/C=C\CCCCCCCCC(CCCCCCCC/C=C\C/C=C\CCCCC)OC(=O)CCCN(C)C` [MC3, reference compound], the “hEPO 6 Hr (ng/ml) Mean” value stood at 7.1 ng/mL.

Still in this experiment, the particulars now being: Table 3, isomannide-derived lipids; mouse serum 6 hours post single IM injection of 0.1 μg hEPO mRNA LNP.
Take `CCCCC/C=C\C/C=C\CCCCCCCCC(CCCCCCCC/C=C\C/C=C\CCCCC)OC(=O)CCCN(C)C` [MC3, reference compound]: the “hEPO 6 Hr (ng/mL) Mean” value stood at 5.6 ng/mL.

Staying with this experiment, now noted: Table 4, further lipids; mouse serum 6 hours post IM injection of hEPO mRNA LNP as in example 3.
For `CCCCCCCCCCCOC(=O)CCCCCN(CCCCCCCC(=O)OC(CCCCCCCC)CCCCCCCC)CCCCSC(=O)N[C@H]1CO[C@H]2[C@@H]1OC[C@@H]2NC(=O)SCCCCN(CCCCCCCC(=O)OC(CCCCCCCC)CCCCCCCC)CCCCCC(=O)OCCCCCCCCCCC` (stereo in doubt) [Compound 84], the “hEPO 6 Hr (ng/ml) Mean” value turned out to be 22.1 ng/mL.
On the same count and under the same terms, the value for `CCCCCCCCCCCOC(=O)CCCC(O)CN(CCCC(=O)O[C@@H]1CO[C@H]2[C@@H]1OC[C@H]2OC(=O)CCCN(CC(O)CCCCCOC(=O)C(CCCCCCCC)CCCCCCCC)CC(O)CCCC(=O)OCCCCCCCCCCC)CC(O)CCCCCOC(=O)C(CCCCCCCC)CCCCCCCC` (stereo partly shown) [Compound 12] was 34.4 ng/mL; that for `CCCCCCCCCCC(O)CN(CCCC(=O)S[C@H]1CO[C@H]2[C@@H]1OC[C@@H]2SC(=O)CCCN(CC(O)CCCCCCCCCC)CC(O)CCCCCCCCCC)CC(O)CCCCCCCCCC` (stereo partly shown) [Compound 44] was 2.0 ng/mL; that for `CCCCCCCCCCC(O)CN(CCCSS[C@H]1CO[C@H]2[C@@H]1OC[C@@H]2SSCCCN(CC(O)CCCCCCCCCC)CC(O)CCCCCCCCCC)CC(O)CCCCCCCCCC` (stereo partly shown) [Compound 45] was 2.2 ng/mL.
On the same count and under the same terms, the value for `CCCCCCCCCCC(O)CN(CCCCS[C@H]1CO[C@H]2[C@@H]1OC[C@@H]2SCCCCN(CC(O)CCCCCCCCCC)CC(O)CCCCCCCCCC)CC(O)CCCCCCCCCC` (stereo partly shown) [Compound 46] was 2.1 ng/mL.
Same read-out and setting: in the case of `CCCCCCCCCCC(O)CCN(CCCNC(=O)O[C@@H]1CO[C@H]2[C@@H]1OC[C@H]2OC(=O)NCCCN(CC(O)CCCCCCCCCC)CC(O)CCCCCCCCCC)C(O)CCCCCCCCCC` (stereo partly shown) [Compound 48] it was 81.3 ng/mL; in that of `CCCCCCCCCCC(O)CN(CCCCC(=O)O[C@@H]1CO[C@H]2[C@@H]1OC[C@H]2OC(=O)CCCN(CC(O)CCCCCCCCCC)CC(O)CCCCCCCCCC)CC(O)CCCCCCCCCC` (stereo partly shown) [Compound 56], 51.9 ng/mL; in that of `CCCCCCCCCCCCCCC(O)CN(CCCC(=O)O[C@@H]1CO[C@H]2[C@@H]1OC[C@@H]2OC(=O)CCCCN(CC(O)CCCCCCCCCC)CC(O)CCCCCCCCCC)CC(O)CCCCCCCCCCCCCC` (stereo partly shown) [Compound 63], 60.5 ng/mL.
With `CCCCCCCCCCCOC(=O)CCCC(O)CN(CCCC(=O)O[C@H]1CO[C@H]2[C@@H]1OC[C@H]2OC(=O)CCCN(CC(O)CCCCCOC(=O)C(CCCCCCCC)CCCCCCCC)CC(O)CCCC(=O)OCCCCCCCCCCC)CC(O)CCCCCOC(=O)C(CCCCCCCC)CCCCCCCC` (stereo partly shown) [Compound 64], the “hEPO 6 Hr (ng/ml) Mean” value was 36.2 ng/mL.
With `CCCCCCCCCCCOC(=O)CCCC(O)CN(CCCCC(=O)O[C@@H]1CO[C@H]2[C@@H]1OC[C@@H]2OC(=O)CCCN(CC(O)CCCCCC(=O)OC(CCCCCCCC)CCCCCCCC)CC(O)CCCC(=O)OCCCCCCCCCCC)CC(O)CCCCCC(=O)OC(CCCCCCCC)CCCCCCCC` (stereo partly shown) [Compound 66], the “hEPO 6 Hr (ng/ml) Mean” value came to 23.2 ng/mL.
On the same count and under the same terms, the value for `CCCCCCCCCCC(O)CN(CCCCCC(=O)O[C@@H]1CO[C@H]2[C@@H]1OC[C@@H]2OC(=O)CCCCN(CC(O)CCCCCCCCCC)CC(O)CCCCCCCCCC)CC(O)CCCCCCCCCC` (stereo partly shown) [Compound 67] was 34.4 ng/mL.
On the same count and under the same terms, the value for `CCCCCCCCC(O)CN(CCCCC(=O)N[C@H]1CO[C@H]2[C@@H]1OC[C@@H]2NC(=O)CCCCN(CC(O)CCCCCCCC)CC(O)CCCCCCCC)CC(O)CCCCCCCC` (stereo partly shown) [Compound 70] was 47.6 ng/mL; that for `CCCCCCCCCCC(O)CN(CCCCC(=O)N[C@H]1CO[C@H]2[C@@H]1OC[C@@H]2NC(=O)CCCCN(CC(O)CCCCCCCCCC)CC(O)CCCCCCCCCC)CC(O)CCCCCCCCCC` (stereo partly shown) [Compound 71] was 72.0 ng/mL; that for `CCCCCCCCCCCOC(=O)CCCCCN(CCCCCCCC(=O)OC(CCCCCCCC)CCCCCCCC)CCCC(=O)N[C@H]1CO[C@H]2[C@@H]1OC[C@@H]2NC(=O)CCCN(CCCCCCCC(=O)OC(CCCCCCCC)CCCCCCCC)CCCCCC(=O)OCCCCCCCCCCC` [Compound 72] was 6.2 ng/mL.
Same read-out and setting: in the case of `CCCCCCCCCCCOC(=O)CCCC(O)CN(CCCC(=O)N[C@H]1CO[C@H]2[C@@H]1OC[C@@H]2NC(=O)CCCN(CC(O)CCCCCC(=O)OC(CCCCCCCC)CCCCCCCC)CC(O)CCCC(=O)OCCCCCCCCCCC)CC(O)CCCCCC(=O)OC(CCCCCCCC)CCCCCCCC` (stereo partly shown) [Compound 73] it was 23.4 ng/mL.
Take `CCCCCC/C=C\COC(=O)CCCCCC(O)CN(CCCC(=O)N[C@H]1CO[C@H]2[C@@H]1OC[C@@H]2NC(=O)CCCN(CC(O)CCCCCC(=O)OC/C=C\CCCCCC)CC(O)CCCCCC(=O)OC/C=C\CCCCCC)CC(O)CCCCCC(=O)OC/C=C\CCCCCC` (stereo partly shown) [Compound 74]: the “hEPO 6 Hr (ng/ml) Mean” value was determined as 2.1 ng/mL.
For the molecule `CCCCCC/C=C\COC(=O)CCCCCCCN(CCCCCCCC(=O)OC/C=C\CCCCCC)CCCC(=O)N[C@H]1CO[C@H]2[C@@H]1OC[C@@H]2NC(=O)CCCN(CCCCCCCC(=O)OC/C=C\CCCCCC)CCCCCCCC(=O)OC/C=C\CCCCCC` [Compound 75], the “hEPO 6 Hr (ng/ml) Mean” value turned out to be 2.1 ng/mL.
With `CCCCCCCCC(O)CN(CCCOC(=O)O[C@@H]1CO[C@H]2[C@@H]1OC[C@H]2OC(=O)OCCCN(CC(O)CCCCCCCC)CC(O)CCCCCCCC)CC(O)CCCCCCCC` (stereo partly shown) [Compound 79], the “hEPO 6 Hr (ng/ml) Mean” value amounted to 21.2 ng/mL.
On the same count and under the same terms, in the case of `CCCCCCCCCCC(O)CN(CCCCC(=O)S[C@H]1CO[C@H]2[C@@H]1OC[C@@H]2SC(=O)CCCCN(CC(O)CCCCCCCCCC)CC(O)CCCCCCCCCC)CC(O)CCCCCCCCCC` (stereo partly shown) [Compound 80] it was 0.9 ng/mL; in that of `CCCCCCCCCCC(O)CN(CCCS[C@H]1CO[C@H]2[C@@H]1OC[C@@H]2SCCCN(CC(O)CCCCCCCCCC)CC(O)CCCCCCCCCC)CC(O)CCCCCCCCCC` (stereo partly shown) [Compound 81], 2.3 ng/mL; in that of `CCCCCCCCCCCCC(O)CN(CCCC(=O)S[C@H]1CO[C@H]2[C@@H]1OC[C@@H]2SC(=O)CCCN(CC(O)CCCCCCCCCCCC)CC(O)CCCCCCCCCCCC)CC(O)CCCCCCCCCCCC` (stereo partly shown) [Compound 82], 3.1 ng/mL.
Turning to `CCCCCCCCCCCCC(O)CN(CCCCC(=O)SC1CO[C@@H]2C(SC(=O)CCCCN(CC(O)CCCCCCCCCCCC)CC(O)CCCCCCCCCCCC)CO[C@H]12)CC(O)CCCCCCCCCCCC` (stereo partly shown) [Compound 83], the “hEPO 6 Hr (ng/ml) Mean” value came out at 8.0 ng/mL.
Same read-out and setting: in the case of `CCCCCC/C=C\COC(=O)CCCCCCCN(CCCCCCCC(=O)OC/C=C\CCCCCC)CCCCSC(=O)N[C@@H]1CO[C@H]2[C@@H]1OC[C@H]2NC(=O)SCCCCN(CCCCCCCC(=O)OC/C=C\CCCCCC)CCCCCCCC(=O)OC/C=C\CCCCCC` [Compound 85] it was 23.8 ng/mL.

The same experiment, now with this note: Table 5, comparative ether compounds; mouse serum 6 hours post IM injection of hEPO mRNA LNP as in example 3.
With `CCCCCCCCC(O)CN(CCCO[C@@H]1CO[C@H]2[C@@H]1OC[C@H]2OCCCN(CC(O)CCCCCCCC)CC(O)CCCCCCCC)CC(O)CCCCCCCC` (stereo partly shown) [reference compound], the “hEPO 6 Hr (ng/ml) Mean” value was 11.3 ng/mL.
Regarding `CCCCCCCCCCC(O)CN(CCCO[C@@H]1CO[C@H]2[C@@H]1OC[C@H]2OCCCN(CC(O)CCCCCCCCCC)CC(O)CCCCCCCCCC)CC(O)CCCCCCCCCC` (stereo partly shown) [reference compound], the “hEPO 6 Hr (ng/ml) Mean” value is 33.8 ng/mL.
On the same count and under the same terms, the value for `CCCCCCCCCCCCC(O)CN(CCCO[C@@H]1CO[C@H]2[C@@H]1OC[C@H]2OCCCN(CC(O)CCCCCCCCCCCC)CC(O)CCCCCCCCCCCC)CC(O)CCCCCCCCCCCC` (stereo partly shown) [reference compound] was 13.9 ng/mL.
